From US20240279236A1, “COMPOUNDS AND METHODS OF TREATING TUBERCULOSIS” (Fimbrion Therapeutics, Inc., priority 2021, published 2024)

Test system: WT Mtb Erdman strain
Test: Microplate Alamar Blue Assay (MABA), Mtb growth inhibition
Assay type: cell-based, Mycobacterium tuberculosis
Conditions: Mycobacterium tuberculosis, ERDMAN, 168 h, Middlebrook 7H9 media, 7 days at 37° C. in 5% CO2

Row | SMILES | IC50 [µM]
1 | Cc1cc2c(N[C@@H]3C[C@H]3c3ccc(F)c(F)c3)nc(C(N)=O)nc2s1 [Example 107, 4-(((1R,2S)-2-(3,4-difluorophenyl)cyclopropyl)amino)-6-methylthieno[2,3-d]pyrimidine-2-carboxamide] | > 6.4
2 | Cc1cc2c(NCCCc3ccccc3)nc(CN3CCCC3)nc2s1 [Example 108, 6-methyl-N-(3-phenylpropyl)-2-(pyrrolidin-1-yLM ethyl)thieno[2,3-d]pyrimidin-4-amine] | > 7.8
3 | Cc1cc2c(NCCCc3ccccc3)nc(CN(C)C)nc2s1 [Example 109, 2-((dimethylamino)methyl)-6-methyl-N-(3-phenylpropyl)thieno [2,3-d]pyrimidin-4-amine] | > 10
4 | Cc1cc2c(NCCCc3ccccc3)nc(-c3ccon3)nc2s1 [Example 110, 2-(isoxazol-3-yl)-6-methyl-N-(3-phenylpropyl)thieno [2,3-d]pyrimidin-4-amine] | 0.055
5 | Cc1cc(-c2nc(NCCCc3ccccc3)c3cc(C)sc3n2)no1 [Example 111, 6-methyl-2-(5-methylisoxazol-3-yl)-N-(3-phenylpropyl)thieno [2,3-d]pyrimidin-4-amin] | 0.21
6 | Cc1cc2c(NCCCc3ccccc3)nc(-c3cc[nH]n3)nc2s1 [Example 112, 6-methyl-N-(3-phenylpropyl)-2-(1H-pyrazol-3-yl)thieno[2,3-d]pyrimidin-4-amine] | 2.8
7 | Cc1cc2c(NCCCc3ccccc3)nc(-c3ccco3)nc2s1 [Example 113] | 0.8
8 | Cc1cc2c(N[C@@H]3C[C@H]3c3ccc(F)c(F)c3)nc(-c3ccoc3)nc2s1 [Example 114, N-((1R,2S)-2-(3,4-difluorophenyl)cyclopropyl)-2-(furan-3-yl)-6-methylthieno[2,3-d]pyrimidin-4-amine] | 0.62
9 | Cc1cc2c(N[C@@H]3C[C@H]3c3ccc(F)c(F)c3)nc(C3CCC3)nc2s1 [Example 115, 2-cyclobutyl-N-((1R,2S)-2-(3,4-difluorophenyl)cyclopropyl)-6-methylthieno[2,3-d]pyrimidin-4-amine] | 0.64
10 | COC(C)(C)c1nc(NCCCc2ccccc2)c2cc(C)sc2n1 [Example 116, 2-(2-methoxypropan-2-yl)-6-methyl-N-(3-phenylpropyl)thieno [2,3-d]pyrimidin-4-amine] | > 10
11 | COC(=O)c1nc(NCCCc2ccc(OC(F)(F)F)cc2)c2cc(C)sc2n1 [Example 117, methyl 6-methyl-4-((3-(4-(trifluoromethoxy)phenyl)propyl)amino) thieno[2,3-d]pyrimidine-2-carboxylate] | > 7.7
12 | COc1ccc(CCCNc2nc(-c3ccoc3)nc3sc(C)cc23)cc1 [Example 118, 2-(furan-3-yl)-N-(3-(4-methoxyphenyl)propyl)-6-methylthieno[2,3-d]pyrimidin-4-amine] | 0.082
13 | Cc1cc2c(NCCCc3ccccc3)nc(-c3cnsc3)nc2s1 [Example 119, 2-(isothiazol-4-yl)-6-methyl-N-(3-phenylpropyl)thieno [2,3-d]pyrimidin-4-amine] | 0.56
14 | Cc1cc2c(NCCCc3ccccc3)nc(C3CCOC3)nc2s1 (stereo not drawn) [Example 120, 6-methyl-N-(3-phenylpropyl)-2-(tetrahydrofuran-3-yl)thieno[2,3-d]pyrimidin-4-amine] | 3
15 | Cc1cc2c(NCCCc3ccc(OC(F)(F)F)cc3)nc(-c3ccon3)nc2s1 [Example 121, 2-(isoxazol-3-yl)-6-methyl-N-(3-(4-(trifluoromethoxy)phenyl)propyl)thieno[2,3-d]pyrimidin-4-amine] | 0.13
16 | Cc1cc(-c2nc(NCCCc3ccc(OC(F)(F)F)cc3)c3cc(C)sc3n2)no1 [Example 122, 6-methyl-2-(5-methylisoxazol-3-yl)-N-(3-(4-(trifluoromethoxy)phenyl)propyl)thieno [2,3-d]pyrimidin-4-amine] | 0.19
17 | Cc1cc2c(NCCCc3ccc(OC(F)(F)F)cc3)nc(-c3ccccn3)nc2s1 [Example 123, 6-methyl-2-(pyridin-2-yl)-N-(3-(4-(trifluoromethoxy)phenyl)propyl)thieno [2,3-d]pyrimidin-4-amine] | 1.8
18 | CSc1nc(NCCCc2ccc(OC(F)(F)F)cc2)c2cc(C)sc2n1 [Example 124, 6-methyl-2-(methylthio)-N-(3-(4-(trifluoromethoxy)phenyl)propyl) thieno[2,3-d]pyrimidin-4-amine] | 0.062
19 | Cc1cc2c(NCCCc3ccc(OC(F)(F)F)cc3)nc(-c3cnsc3)nc2s1 [Example 125, 2-(isothiazol-4-yl)-6-methyl-N-(3-(4-(trifluoromethoxy)phenyl)propyl)thieno [2,3-d]pyrimidin-4-amine] | 0.61
20 | Cc1cc2c(NCCCc3ccccc3)nc(-c3ccc(F)cc3)nc2s1 [Example 126, 2-(4-fluorophenyl)-6-methyl-N-(3-phenylpropyl)thieno [2,3-d]pyrimidin-4-amine] | 2.6
21 | CCc1nc(NCCc2ccc(Cl)c(Cl)c2)c2cc(C)sc2n1 [Example 127, N-(3,4-dichlorophenethyl)-2-ethyl-6-methylthieno[2,3-d]pyrimidin-4-amine] | 2.8

Row | SMILES | IC50 [µM]
22 | Cc1cc2c(NCCCc3ccccc3)nc(-c3cscn3)nc2s1 [Example 128, 6-methyl-N-(3-phenylpropyl)-2-(thiazol-4-yl)thieno[2,3-d]pyrimidin-4-amine] | 0.66
23 | Cc1cc2c(NCCCc3ccccc3)nc(-c3nnc[nH]3)nc2s1 [Example 129, 6-methyl-N-(3-phenylpropyl)-2-(4H-1,2,4-triazol-3-yl)thieno[2,3-d]pyrimidin-4-amine] | 5.6
24 | Cc1cc2c(NCCCc3ccccc3)nc(-c3cn[nH]c3)nc2s1 [Example 130, 6-methyl-N-(3-phenylpropyl)-2-(1H-pyrazol-4-yl)thieno[2,3-d]pyrimidin-4-amine] | 2.2
25 | Cc1cc2c(NCCCc3ccccc3)nc(-n3ccnc3)nc2s1 [Example 131, 2-(1H-imidazol-1-yl)-6-methyl-N-(3-phenylpropyl)thieno [2,3-d]pyrimidin-4-amine] | 3
26 | Cc1ccc(-c2nc(NCCCc3ccccc3)c3cc(C)sc3n2)o1 [Example 132, 6-methyl-2-(5-methylfuran-2-yl)-N-(3-phenylpropyl)thieno [2,3-d]pyrimidin-4-amine] | 6.6
27 | Cc1cc2c(NCCCc3ccccc3)nc(-c3cnn(C)c3)nc2s1 [Example 133, 6-methyl-2-(1-methyl-1H-pyrazol-4-yl)-N-(3-phenylpropyl)thieno [2,3-d]pyrimidin-4-amine] | 0.27
28 | Cc1cc2c(NCCCc3ccccc3)nc(CC(C)C)nc2s1 [Example 134, 2-isobutyl-6-methyl-N-(3-phenylpropyl)thieno [2,3-d]pyrimidin-4-amine] | 0.44
29 | Cc1cc2c(NCCCc3ccccc3)nc(C(C)Cl)nc2s1 (stereo not drawn) [Example 135, 2-(1-chloroethyl)-6-methyl-N-(3-phenylpropyl)thieno [2,3-d]pyrimidin-4-amine] | 0.23
30 | CCc1nc(NCCCc2ccc(OC(F)(F)F)c(C)c2)c2cc(C)sc2n1 [Example 136, 2-ethyl-6-methyl-N-(3-(3-methyl-4-(trifluoromethoxy)phenyl)propyl)thieno [2,3-d]pyrimidin-4-amine] | 0.69
31 | Cc1cc2c(NCCCc3ccccc3)nc(Cc3ccc(F)cc3)nc2s1 [Example 137, 2-(4-fluorobenzyl)-6-methyl-N-(3-phenylpropyl)thieno [2,3-d]pyrimidin-4-amine] | > 10
32 | Cc1cc2c(NCCCc3ccccc3)nc(CCc3ccccc3)nc2s1 [Example 138, 6-methyl-2-phenethyl-N-(3-phenylpropyl)thieno [2,3-d]pyrimidin-4-amine] | > 10
33 | Cc1cc(-c2nc(NCCCc3ccccc3)c3cc(C)sc3n2)c(C)o1 [Example 139, 2-(2,5-dimethylfuran-3-yl)-6-methyl-N-(3-phenylpropyl)thieno [2,3-d]pyrimidin-4-amine] | > 10
34 | Cc1cc(Cc2nc(NCCCc3ccccc3)c3cc(C)sc3n2)no1 [Example 140, 6-methyl-2-((5-methylisoxazol-3-yl)methyl)-N-(3-phenylpropyl)thieno [2,3-d]pyrimidin-4-amine] | > 10
35 | Cc1nc(-c2nc(NCCCc3ccccc3)c3cc(C)sc3n2)co1 [Example 141, 6-methyl-2-(2-methyloxazol-4-yl)-N-(3-phenylpropyl)thieno [2,3-d]pyrimidin-4-amine] | 1.2
36 | Cc1cc2c(NCCCc3ccccc3)nc(SCc3ccccc3)nc2s1 [Example 142, 2-(benzylthio)-6-methyl-N-(3-phenylpropyl)thieno [2,3-d]pyrimidin-4-amine] | > 10
37 | Cc1cc2c(NCCCc3ccccc3)nc(-c3ncon3)nc2s1 [Example 143, 6-methyl-2-(1,2,4-oxadiazol-3-yl)-N-(3-phenylpropyl)thieno [2,3-d]pyrimidin-4-amine] | 0.22
38 | Cc1nc2c(N[C@@H]3C[C@H]3c3ccc(F)c(F)c3)nc(-c3ccc(C(F)(F)F)cn3)nc2s1 [Example 144, N-((1R,2S)-2-(3,4-difluorophenyl)cyclopropyl)-2-methyl-5-(5-(trifluoromethyl)pyridin-2-yl)thiazolo[5,4-d]pyrimidin-7-amine] | > 10
39 | Cc1nc2c(NCCCc3ccccc3)nc(-c3ccc(C(F)(F)F)cn3)nc2s1 [Example 145, 2-methyl-N-(3-phenylpropyl)-5-(5-(trifluoromethyl)pyridin-2-yl)thiazolo[5,4-d]pyrimidin-7-amine] | 7.3
40 | Cc1nc2c(N[C@@H]3C[C@H]3c3ccc(F)c(F)c3)nc(-c3ccc(F)cn3)nc2s1 [Example 146, N-((1R,2S)-2-(3,4-difluorophenyl)cyclopropyl)-5-(5-fluoropyridin-2-yl)-2-methylthiazolo[5,4-d]pyrimidin-7-amine] | 5.1
41 | Cc1nc2c(NCCCc3ccccc3)nc(-c3ccc(F)cn3)nc2s1 [Example 147, 5-(5-fluoropyridin-2-yl)-2-methyl-N-(3-phenylpropyl)thiazolo [5,4-d]pyrimidin-7-amine] | 2.1
42 | Cc1nc2c(N[C@@H]3C[C@H]3c3ccc(F)c(F)c3)nc(-c3ccncn3)nc2s1 [Example 148, N-((1R,2S)-2-(3,4-difluorophenyl)cyclopropyl)-2-methyl-5-(pyrimidin-4-yl)thiazolo[5,4-d]pyrimidin-7-amine] | > 10
